Results taken from patent publication US8471061B2 (priority 2004, dated 2013).
Values joined by “and” are separate entries in the source; they are usually repeats but may differ in a detail not shown here. Equal entries are not always repeated.

Assays:
[1] = Degradation test by sterilization; type: physicochemical; conditions: 50 mg heat sterilized, 121° C., 20 minutes, 1.5 kgf/cm^2
Description: Firstly, 50 mg of 5-aminolevulinic acid p-toluenesulfonate or 5-aminolevulinic acid hydrochloride was heat sterilized (121° C., 20 minutes, 1.5 kgf/cm^2). After confirming that there is no change in weight before and after the sterilization, degree of degradation of 5-aminolevulinic acid before and after the sterilization was verified by the method described in a reference (Clin. Chem., 36/8, 1494 (1990)).

[2] = Chloride ion concentration of aqueous solutions by ion chromatography; type: physicochemical; conditions: detection limit 0.1 ppm; each sample
Description: When chloride ion concentration in the aqueous 5-aminolevulinic acid phosphate solutions used in the above-described examples was measured by ion chromatography under the following conditions, it was equal to or lower than the detection limit (0.1 ppm) in each sample.
(§1) The measuring conditions are as follows; A: separation column (IonPac AS12A manufactured by Japan Dionex), B: guard column (IonPac AG12A manufactured by Japan Dionex), C: eluting solution (an aqueous solution containing Na2CO3: 3.0 mmol/l and NaHCO3: 0.5 mmol/l), D: flow rate (1.5 ml/min), E: suppressor (ASRS (recycle mode, current value 50 mA)), F: amount of introduced sample (25 μl), G: temperature of constant temperature oven (35° C.) and H: detector (electric conductivity detector).
When chloride ion concentration in the aqueous 5-aminolevulinic acid nitrate solutions used in the above-described examples was measured by ion chromatography under the following conditions, it was equal to or lower than the detection limit (0.1 ppm) in each sample.
as §1, with “follows:” for “follows;”, “consisting of” for “containing”
When chloride ion concentration in the aqueous 5-aminolevulinic acid p-toluenesulfonate solutions used in the above-described examples was measured by ion chromatography under the following conditions, it was equal to or lower than the detection limit (0.1 ppm) in each sample.

[3] = tested on: Escherichia coli WP2 uvrA; experiment: Back mutation test, WP2uvrA; type: cell-based; conditions: for number of back mutation, single plates: Phosphate
Description: A test was carried out in accordance with the “Standard of Mutagenicity Tests Using Microorganisms” (Ministry of Labor Notification No. 77, 1988) (partial revision by Ministry of Labor Notification No. 67, 1997) and “Regarding the Tests Concerning Novel Chemical Substances and the like” (dated Nov. 21, 2003: Yaku-Shoku-Hatsu No. 1121002, 2003.11.13 Sei-Kyoku, No. 2, Kan-Ho-Ki-Hatsu No. 031121002). To 0.1 ml of a solution prepared by dissolving 5% (w/v) of 5-aminolevulinic acid phosphate in distilled water (Wako Pure Chemical Industries), 0.5 ml of 0.1 M sodium-phosphate buffer (pH 7.4) (0.5 ml S9 mix in the case of metabolism activation test) was added, and 0.1 ml of each test strain suspension (5 strains of histidine-less Salmonella typhimurium TA 100, TA 98, TA 1535 and TA 1537 and tryptophan-less Escherichia coli WP2 uvrA were used (Japan Bioassay Research Center)) was further added thereto, followed by pre-incubation at 37° C. for 20 minutes while shaking. After completion of the culturing, 2.0 ml of top agar kept at 45° C. in advance was added thereto and layered on a minimum glucose agar plate medium. In this case, 2 plates were arranged for each dosage. However, 3 plates were arranged for a solvent control (negative control). […] In the measurement, an inner area of about 80 mm in diameter of a plate of 86 mm in diameter (84 mm in inner diameter) was measured using an automatic colony analyzer (CA-11: manufactured by System Science), and calculated by carrying out area correction and counting loss correction using a personal computer. However, since reliability of the automatic colony analyzer is reduced when the number of colonies is 1,500 or more, 5 points in the plate were manually measured under the stereoscopic microscope to carry out area correction of the average value. A dosage setting test was carried out on 7 dosages diluted at a common ratio of 4, using a dosage of 5,000 μg/plate as the maximum which is the maximum dosage defined by the guideline. […] Growth inhibition of the strains by this substance to be tested was not found. […] Thus, this test was carried out by setting 5 dosages diluted at a common ratio of 2, using a dosage of 5,000 μg/plate as the maximum which is the maximum dosage defined by the guideline.

[4] = tested on: Salmonella typhimurium TA 100, TA 98, TA 1535 and TA 1537 and Escherichia coli WP2 uvrA; experiment: Mutagenicity test (back mutation test) using microorganisms, all strains; type: cell-based
Description: A test was carried out in accordance with the “Standard of Mutagenicity Tests Using Microorganisms” (Ministry of Labor Notification No. 77, 1988) (partial revision by Ministry of Labor Notification No. 67, 1997) and “Regarding the Tests Concerning Novel Chemical Substances and the like” (dated Nov. 21, 2003: Yaku-Shoku-Hatsu No. 1121002, 2003.11.13 Sei-Kyoku, No. 2, Kan-Ho-Ki-Hatsu No. 031121002). […] In the measurement, an inner area of about 80 mm in diameter of a plate of 86 mm in diameter (84 mm in inner diameter) was measured using an automatic colony analyzer (CA-11: manufactured by System Science), and calculated by carrying out area correction and counting loss correction using a personal computer. However, since reliability of the automatic colony analyzer is reduced when the number of colonies is 1,500 or more, 5 points in the plate were manually measured under the stereoscopic microscope to carry out area correction of the average value. […]

## Cl.NCC(=O)CCC(=O)O [5-aminolevulinic acid hydrochloride, reference compound]
[1]
  Degradation degree (%): 6.6%

## NCC(=O)CCC(=O)O.O=P(O)(O)O [5-aminolevulinic acid phosphate, 5-aminolevulinic Acid Phosphate]
[2]
  chloride ion concentration in the aqueous solutions used in the examples: ≤ 0.1 ppm
[3]; S9 Mix(+), 313 μg/plate
  number of back mutation, mean (in parentheses): (24) colonies/plate
  number of back mutation, single plates: 31 colonies/plate and 17 colonies/plate
[3]; S9 Mix(+), 625 μg/plate
  number of back mutation, mean (in parentheses): (32) colonies/plate
  number of back mutation, single plates: 40 colonies/plate and 24 colonies/plate
[3]; S9 Mix(+), 1250 μg/plate
  number of back mutation, mean (in parentheses): (32) colonies/plate
  number of back mutation, single plates: 34 colonies/plate and 29 colonies/plate
[3]; S9 Mix(+), 2500 μg/plate
  number of back mutation, mean (in parentheses): (25) colonies/plate
  number of back mutation, single plates: 23 colonies/plate and 27 colonies/plate
[3]; S9 Mix(+), 5000 μg/plate
  number of back mutation, mean (in parentheses): (28) colonies/plate
  number of back mutation, single plates: 25 colonies/plate and 30 colonies/plate
[3]; S9 Mix(−), 313 μg/plate
  number of back mutation, mean (in parentheses): (31) colonies/plate
  number of back mutation, single plates: 25 colonies/plate and 36 colonies/plate
[3]; S9 Mix(−), 625 μg/plate
  number of back mutation, mean (in parentheses): (28) colonies/plate
  number of back mutation, single plates: 27 colonies/plate and 28 colonies/plate
[3]; S9 Mix(−), 1250 μg/plate
  number of back mutation, mean (in parentheses): (31) colonies/plate
  number of back mutation, single plates: 28 colonies/plate and 33 colonies/plate
[3]; S9 Mix(−), 2500 μg/plate
  number of back mutation, mean (in parentheses): (27) colonies/plate
  number of back mutation, single plates: 25 colonies/plate and 28 colonies/plate
[3]; S9 Mix(−), 5000 μg/plate
  number of back mutation, mean (in parentheses): (31) colonies/plate
  number of back mutation, single plates: 25 colonies/plate and 36 colonies/plate
[4]
  mutation inducing ability: does not have the mutation inducing ability
